Assay results as given in patent US11654136B2, “Phosphoinositide 3-kinase inhibitor with a zinc binding moiety” (Curis, Inc., priority 2011, dated 2023).

Legend:
[1] = tested on: PI3K-AKT-mTOR pathway, RAF-MEK-ERK pathways, RTK protein levels, p53 and p21; assay: Pharmacodynamics, Western blots of Daudi tumor tissue extracts; format: in vivo, Scid mice; settings: single dose 25, 50 and 100 mg/kg; Daudi tumors
Procedure: Protein was extracted from tumor tissues using a Tissuelyser (Qiagen, Valencia, Calif.) according to the manufacturer's instructions. 30 ug of protein was routinely used for WB analysis as described above. Cell lysates were resolved on NuPAGE Novex 4-12% Bis-Tris gels (Invitrogen) and transferred to nitrocellulose membranes (Bio-Rad Laboratories, Hercules, Calif.). The blots were probed with various primary antibodies overnight at 4° C. GAPDH (glyceraldehyde 3-phosphate dehydrogenase, 1:30,000, Abcam, Cambridge, Mass.) was used as an internal control for each assay. Membranes were then incubated with infrared labeled secondary antibodies (1:10000) conjugated-IR Dye-800 (Rockland Immunochemicals, Inc. Gilbertsville, Pa.) or conjugated-Alexa 680 (Invitrogen). Membranes were imaged with the Odyssey Infrared Imaging System (Li-Cor Biotechnology, Lincoln, Nebr.).

MM1S human MM xenograft = assay: Combination with lenalidomide in the MM1S xenograft model; format: in vivo, SCID/Beige mice; settings: 75 mg/Kg PO Qd (Mon-Fri); 17 days; single agent
Procedure: Female SCID/Beige mice at age 4 weeks were housed in ventilated micro-isolator cages (INNOCAGE®IVC, Innovive Inc., San Diego, Calif.) in a controlled climate, fed with sterile high-fat diet (Problab-RMH 2000) ad libitum and provided with sterilized water. All housing and supplies for SCID/Beige mice were sterilized by autoclaving before use. Mice were inspected daily including weekends/holidays by trained animal facility personnel and investigators. All animal procedures were performed under sterile conditions within a biosafety cabinet (for injections) or laminar flow hood (for animal husbandry and non-invasive procedures).
Cryopreserved MM1S human MM cells were thawed in a 37° C. water bath and cultured in RPMI medium plus 10% Fetal Bovine Serum (FBS) in a tissue culture incubator at 5% CO2. […] The implanted mice were monitored for general health and tumor development daily.
(§1) Tumors were detectable about two weeks following implantation. Tumor size was measured with a caliper. […]
(§2) During each animal study, tumors were measured with calipers, tumor size determined using the above mentioned formula, and tumor size changes in percentage calculated. Mouse body weights were measured with a scale twice per week. […] T/C values were calculated using the following formula: % T/C=100×ΔT/ΔC if ΔT>0. […]

[2] = tested on: Daudi human Burkitt's lymphoma xenograft; assay: Comparison with CAL-101 in the Daudi xenograft tumor model; format: in vivo, SCID beige mice; settings: 100 mg/kg Qd (Mon-Fri), PO; 18 days
Procedure: Female SCID beige mice (CD-1 Beige SCID) at 6-8 weeks of age were housed in ventilated micro-isolator cages in a controlled climate, fed with sterile high-fat diet (Problab-RMH 2000 ad libitum and provided with sterilized water. All housing and supplies for SCID beige mice are disposable, and purchased irradiated from Innovive prior to use. Mice were inspected daily including weekends/holidays by trained animal facility personnel and investigators. All animal procedures were performed under sterile conditions in a biosafety cabinet (for injections) or laminar flow hood (for animal husbandry and non-invasive procedures).
Daudi human Burkitt's lymphoma cells were originally obtained from a human Burkitt's lymphoma patient. […] The implanted mice were monitored for general health and tumor development daily.
as §1, §2
Tumor sizes and body weights were measured again on the last day of the study.

Structure (SMILES): COc1ccc(-c2nc(N3CCOCC3)c3sc(CN(C)c4ncc(C(=O)NO)cn4)cc3n2)cn1 [Compound 1, N-hydroxy-2-(((2-(6-methoxypyridin-3-yl)-4-morpholinothieno[3,2-d]pyrimidin-6-yl)methyl)(methyl)amino)pyrimidine-5-carboxamide]
- Pharmacodynamic markers in tumor tissue (Western blots) [1]: inhibits the PI3K-AKT-mTOR pathway, suppresses the RAF-MEK-ERK pathways, downregulates RTK protein levels and up-regulates tumor suppressor p53 and p21 levels
- Tumor growth (MM1S human MM xenograft): more effective than Lenalidomide at either 12.5 or 25 mg/Kg PO as single agents
- Tumor growth [2]: significantly reduced tumor growth compared to the CAL-101 and control groups
